The test system of data set [1] is Hepatotoxicity. Nature of the data set: Literature-mined compound from Fourches et al multi-species drug-induced liver injury (DILI) dataset, effect in humans. To be noted: human.
Data set [2] concerns Hepatotoxicity. Description: Literature-mined compound from Fourches et al multi-species drug-induced liver injury (DILI) dataset, effect in rodents. The settings on record: rodentia.
Data set [3] has as its system Hepatotoxicity. Nature of the data set: Literature-mined compound from Fourches et al multi-species drug-induced liver injury (DILI) dataset, effect in non-rodents.

Consider `CC(C)c1ccc(C(=O)NC(=N)N)cc1S(C)(=O)=O` [CARIPORIDE], for which the results for the Hepatotoxicity result in the data set with Hepatotoxicity [1], in the data set on Hepatotoxicity [2] and with Hepatotoxicity [3] were “no drug-induced liver injury reported”, “drug-induced liver injury reported” and “no drug-induced liver injury reported”, respectively.
Consider `CC(C)OC(=O)C(C)(C)Oc1ccc(C(=O)c2ccc(Cl)cc2)cc1` [FENOFIBRATE], for which the Hepatotoxicity entry was “drug-induced liver injury reported” in the data set with Hepatotoxicity [1], “drug-induced liver injury reported” in the data set with Hepatotoxicity [2] and “no drug-induced liver injury reported” in the data set on Hepatotoxicity [3].
As for `OC[C@H]1O[C@@](CO)(O[C@H]2O[C@H](CO)[C@@H](O)[C@H](O)[C@H]2O)[C@@H](O)[C@@H]1O` [SUCROSE], the results for the Hepatotoxicity result in the data set on Hepatotoxicity [1], in the data set on Hepatotoxicity [2] and in the data set on Hepatotoxicity [3] were “no drug-induced liver injury reported”, “drug-induced liver injury reported” and “drug-induced liver injury reported”, respectively.
`CCC[C@H](N[C@@H](C)C(=O)N1[C@H](C(=O)O)C[C@@H]2CCCC[C@@H]21)C(=O)OCC` [PERINDOPRIL]: the values for the Hepatotoxicity result in the data set on Hepatotoxicity [1], with Hepatotoxicity [2] and with Hepatotoxicity [3] were “drug-induced liver injury reported”, “drug-induced liver injury reported” and “no drug-induced liver injury reported”, respectively.
Take IRON(II) CITRATE: the Hepatotoxicity entry in the data set on Hepatotoxicity [1] is listed as “no drug-induced liver injury reported”; in the data set on Hepatotoxicity [2] it was “drug-induced liver injury reported”; in the data set on Hepatotoxicity [3], “no drug-induced liver injury reported”.
For `NC12CC3CC(CC(C3)C1)C2` [AMANTADINE], the values for the Hepatotoxicity entry in the data set on Hepatotoxicity [1], in the data set with Hepatotoxicity [2] and in the data set on Hepatotoxicity [3] were “no drug-induced liver injury reported”, “drug-induced liver injury reported” and “no drug-induced liver injury reported”, respectively.
As for `COc1ccccc1Oc1c(NS(=O)(=O)c2ccc(C(C)(C)C)cc2)nc(-c2ncccn2)nc1OCCO` [BOSENTAN], the Hepatotoxicity result with Hepatotoxicity [1], in the data set on Hepatotoxicity [2] and with Hepatotoxicity [3] was “drug-induced liver injury reported” each time.
As to `O=C1C(CC[S+]([O-])c2ccccc2)C(=O)N(c2ccccc2)N1c1ccccc1` (stereo unspecified) [SULFINPYRAZONE], the Hepatotoxicity entry was “drug-induced liver injury reported” in the data set with Hepatotoxicity [1], “no drug-induced liver injury reported” with Hepatotoxicity [2] and “no drug-induced liver injury reported” with Hepatotoxicity [3].
With `CN(C)CCCN1c2ccccc2CCc2ccccc21` [IMIPRAMINE], the Hepatotoxicity entry is “drug-induced liver injury reported” in the data set on Hepatotoxicity [1], “drug-induced liver injury reported” in the data set with Hepatotoxicity [2] and “no drug-induced liver injury reported” in the data set with Hepatotoxicity [3].
Take `CC(C)c1nc(CN(C)C(=O)N[C@H](C(=O)N[C@@H](Cc2ccccc2)C[C@H](O)[C@H](Cc2ccccc2)NC(=O)OCc2cncs2)C(C)C)cs1` [RITONAVIR]: the Hepatotoxicity entry in the data set with Hepatotoxicity [1] is given as “drug-induced liver injury reported”; in the data set on Hepatotoxicity [2], “drug-induced liver injury reported”; in the data set with Hepatotoxicity [3] it was “no drug-induced liver injury reported”.
Turning to `C=CCN1CC[C@]23c4c5ccc(O)c4O[C@H]2C(=O)CC[C@@]3(O)[C@H]1C5` [NALOXONE], the results for the Hepatotoxicity result in the data set with Hepatotoxicity [1], in the data set on Hepatotoxicity [2] and with Hepatotoxicity [3] were “no drug-induced liver injury reported”, “drug-induced liver injury reported” and “no drug-induced liver injury reported”, respectively.
As to `C[C@]12C/C(=C/O)C(=O)C[C@@H]1CC[C@@H]1[C@@H]2CC[C@@]2(C)[C@H]1CC[C@]2(C)O` [OXYMETHOLONE], the results for the Hepatotoxicity result in the data set on Hepatotoxicity [1], in the data set with Hepatotoxicity [2] and in the data set with Hepatotoxicity [3] were “drug-induced liver injury reported”, “no drug-induced liver injury reported” and “no drug-induced liver injury reported”, respectively.
For the compound `CN(C)CC/C=C1\c2ccccc2CSc2ccccc21` [DOTHIEPIN], the Hepatotoxicity entry is given as “drug-induced liver injury reported” with Hepatotoxicity [1], “no drug-induced liver injury reported” in the data set on Hepatotoxicity [2] and “no drug-induced liver injury reported” in the data set on Hepatotoxicity [3].
For the compound `N[C@@H](CN(O)N=O)C(=O)O` [ALANOSINE], the figures for the Hepatotoxicity result with Hepatotoxicity [1], in the data set with Hepatotoxicity [2] and with Hepatotoxicity [3] were “no drug-induced liver injury reported”, “drug-induced liver injury reported” and “no drug-induced liver injury reported”, respectively.
Consider `CC1CC(OC(=O)C(O)c2ccccc2)CC(C)(C)C1` (stereo unspecified) [CYCLANDELATE], for which the Hepatotoxicity entry in the data set on Hepatotoxicity [1] is given as “no drug-induced liver injury reported”; with Hepatotoxicity [2], “drug-induced liver injury reported”; with Hepatotoxicity [3] it was “no drug-induced liver injury reported”.
For the compound `OC(CNc1ccccn1)c1ccccc1` (stereo unspecified) [PHENYRAMIDOL], the Hepatotoxicity entry with Hepatotoxicity [1] is recorded as “drug-induced liver injury reported”; with Hepatotoxicity [2], “no drug-induced liver injury reported”; with Hepatotoxicity [3], “no drug-induced liver injury reported”.
For the compound `NNc1nncc2ccccc12` [HYDRALAZINE], the Hepatotoxicity entry in the data set with Hepatotoxicity [1] (Liver), in the data set with Hepatotoxicity [2] (Liver) and with Hepatotoxicity [3] (Liver) was “drug-induced liver injury reported” each time.
Regarding `CC(C)(C)NC[C@H](O)COc1nsnc1N1CCOCC1` [TIMOLOL], the figures for the Hepatotoxicity result in the data set on Hepatotoxicity [1], in the data set with Hepatotoxicity [2] and in the data set with Hepatotoxicity [3] were “drug-induced liver injury reported”, “no drug-induced liver injury reported” and “no drug-induced liver injury reported”, respectively.
For the compound `CO[C@@]1(NC(=O)C2SC(=C(C(N)=O)C(=O)O)S2)C(=O)N2C(C(=O)O)=C(CSc3nnnn3C)CS[C@@H]21` (stereo partly specified) [CEFOTETAN], the figures for the Hepatotoxicity entry with Hepatotoxicity [1], with Hepatotoxicity [2] and in the data set with Hepatotoxicity [3] were “drug-induced liver injury reported”, “no drug-induced liver injury reported” and “no drug-induced liver injury reported”, respectively.
As to `CCC(=O)C(CC(C)N(C)C)(c1ccccc1)c1ccccc1` (stereo unspecified) [METHADONE], the Hepatotoxicity result in the data set with Hepatotoxicity [1] is listed as “drug-induced liver injury reported”; in the data set with Hepatotoxicity [2] it was “drug-induced liver injury reported”; in the data set on Hepatotoxicity [3] it was “no drug-induced liver injury reported”.
Consider `C[C@@H]1C/C=C/C=C/C=C/C=C/[C@H](O[C@@H]2O[C@H](C)[C@@H](O)[C@H](N)[C@@H]2O)C[C@@H]2O[C@](O)(C[C@@H](O)C[C@H]3O[C@@H]3/C=C/C(=O)O1)C[C@H](O)[C@H]2C(=O)O` [NATAMYCIN], for which the figures for the Hepatotoxicity entry with Hepatotoxicity [1], in the data set on Hepatotoxicity [2] and in the data set with Hepatotoxicity [3] were “no drug-induced liver injury reported”, “no drug-induced liver injury reported” and “drug-induced liver injury reported”, respectively.
With `CC=CC1=C(C(=O)O)N2C(=O)[C@@H](NC(=O)[C@H](N)c3ccc(O)cc3)[C@H]2SC1` [CEFPROZIL], the Hepatotoxicity result with Hepatotoxicity [1] was “drug-induced liver injury reported”; in the data set with Hepatotoxicity [2], “no drug-induced liver injury reported”; in the data set with Hepatotoxicity [3] it was “no drug-induced liver injury reported”.
As to `COc1ccc2c3c1O[C@H]1C(=O)CC[C@@]4(O)[C@@H](C2)N(C)CC[C@]314.Cl` [OXYCODONE HYDROCHLORIDE], the Hepatotoxicity result was “no drug-induced liver injury reported” with Hepatotoxicity [1] (Liver), “drug-induced liver injury reported” in the data set on Hepatotoxicity [2] (Liver) and “no drug-induced liver injury reported” in the data set with Hepatotoxicity [3] (Liver).
Regarding `Cc1c(O)cccc1C(=O)N[C@@H](CSc1ccccc1)[C@H](O)CN1C[C@H]2CCCC[C@H]2C[C@H]1C(=O)NC(C)(C)C`, the Hepatotoxicity entry in the data set with Hepatotoxicity [1] was “drug-induced liver injury reported”; with Hepatotoxicity [2], “no drug-induced liver injury reported”; with Hepatotoxicity [3], “no drug-induced liver injury reported”.
On to `CCn1cc(C(=O)O)c(=O)c2cc(F)c(N3CCNCC3)nc21` [ENOXACIN], for which the Hepatotoxicity result in the data set with Hepatotoxicity [1] is listed as “drug-induced liver injury reported”; in the data set on Hepatotoxicity [2], “drug-induced liver injury reported”; in the data set with Hepatotoxicity [3], “no drug-induced liver injury reported”.
`Cc1ncc(C[n+]2csc(CCO)c2C)c(N)n1` [THIAMINE ION]: the Hepatotoxicity result is on record as “drug-induced liver injury reported” in the data set on Hepatotoxicity [1] (Liver), “drug-induced liver injury reported” with Hepatotoxicity [2] (Liver) and “no drug-induced liver injury reported” in the data set on Hepatotoxicity [3] (Liver).
Turning to `Cc1ccccc1-n1c(C)nc2ccccc2c1=O` [METHAQUALONE], the Hepatotoxicity result in the data set with Hepatotoxicity [1] is “no drug-induced liver injury reported”; in the data set on Hepatotoxicity [2], “drug-induced liver injury reported”; with Hepatotoxicity [3], “no drug-induced liver injury reported”.
Regarding `CCOC(=O)c1cncn1[C@H](C)c1ccccc1` [ETOMIDATE], the Hepatotoxicity entry is reported as “drug-induced liver injury reported” with Hepatotoxicity [1], “drug-induced liver injury reported” in the data set with Hepatotoxicity [2] and “no drug-induced liver injury reported” in the data set with Hepatotoxicity [3].
In the case of `COC(=O)C1=C(C)NC(C)=C(C(=O)OC(C)C)C1c1cccc2nonc12` (stereo unspecified) [ISRADIPINE], the Hepatotoxicity result was “drug-induced liver injury reported” with Hepatotoxicity [1], “no drug-induced liver injury reported” in the data set with Hepatotoxicity [2] and “no drug-induced liver injury reported” in the data set with Hepatotoxicity [3].
Turning to `CNC[C@H](O)[C@@H](O)[C@H](O)[C@H](O)CO` [MEGLUMINE], the Hepatotoxicity result in the data set on Hepatotoxicity [1] is on record as “drug-induced liver injury reported”; in the data set on Hepatotoxicity [2] it was “no drug-induced liver injury reported”; in the data set on Hepatotoxicity [3], “no drug-induced liver injury reported”.
`NC(=O)c1ccc[n+]([C@@H]2O[C@H](COP(=O)([O-])OP(=O)(O)OC[C@H]3O[C@@H](n4cnc5c(N)ncnc54)[C@H](O)[C@@H]3O)[C@@H](O)[C@H]2O)c1` [NADIDE]: the Hepatotoxicity entry with Hepatotoxicity [1] is recorded as “no drug-induced liver injury reported”; in the data set with Hepatotoxicity [2] it was “drug-induced liver injury reported”; in the data set on Hepatotoxicity [3], “no drug-induced liver injury reported”.
As to `COc1ccc2cc([C@H](C)C(=O)O)ccc2c1` [NAPROXEN], the Hepatotoxicity entry in the data set with Hepatotoxicity [1] (Liver) is “drug-induced liver injury reported”; in the data set with Hepatotoxicity [2] (Liver) it was “drug-induced liver injury reported”; with Hepatotoxicity [3] (Liver), “no drug-induced liver injury reported”.

These data come from ChEMBL document CHEMBL1697731, “Cheminformatics analysis of assertions mined from literature that describe drug-induced liver injury in different species” (Chem Res Toxicol, 2010).
